Measurements published in patent publication US20050281745A1, “Stable isotope based dynamic metabolic profiling of living organisms for characterization of metabolic diseases, drug testing and drug development” (priority 2002, published 2005).

Tested on: pentose cycle, glucose activation and fatty acid synthesis pathways
Assay: stable isotope ([1,2-13C2]glucose) based dynamic metabolic profiling
Format: cell-based
Details: for cell proliferation rates / nucleic acid ribose synthesis through the non-oxidative steps of the pentose cycle: metabolic profile induced by cell transforming agents
Excerpt: The present invention comprises, for example, the use of the stable [1,2-^13C2]glucose tracer for metabolic pathway analyses in cultures of mammalian cells, bacteria, virus hosting cells, phage hosting bacteria, tissue slices, perfused organs, living animals or humans. The invention provides a dynamic and comprehensive metabolic profiling technique by using specifically labeled glucose substrate isotopes which not only turn into intermediary metabolites but also produce mass isotopomers of these metabolites which can be separated, measured and quantitated using liquid and gas chromatography separation and mass spectrometry (GC/MS), other mass spectrometric analysis or nuclear magnetic resonance (NMR) instruments.
After treatments, while incubating with the isotope labeled glucose substrate, the profiling study may begin with the separation of cell pellets, cell culture media, blood plasma/serum or body fluids. The cell culture media may then be used for lactate and glutamate analyses. Lactate is an abundant cell media component of the 3 carbon metabolite pool of the cell. It is used to determine the relative activity of pentose cycle glucose oxidation and recycling into glycolysis, as the percent of substrate flux through glycolysis, also known as the Embden-Meyerhoff-Parnas pathway. Glutamate label accumulation represents tricarboxylic acid (TCA) cycle carbon substrate flow. Nucleic acid ribose and deoxyribose are used to determine cell viability (ribose) and cell proliferation (deoxyribose).
Cell cycle progression and the frequency of cell divisions are determined by the accumulation of ^13C label into deoxyribose, while cell viability, apoptosis and necrosis are determined by the differential incorporation of ^13C into ribose and deoxyribose. The major advantage of our label system introduced herein is that we can differentiate between glucose oxidation and nonoxidative ribose/deoxyribose synthesis during nucleic acid production in disease and health as well as during drug testing. Glycogen glucose represents glycogen synthesis, which can originate from activated glucose (direct glycogen synthesis) or indirectly from pentoses after glucose oxidation in the pentose cycle. Non-essential fatty acids of the saturated and desaturated kinds indicate the rate of de novo fatty acid synthesis from glucose and the contribution of fatty acid synthase, chain elongase and desaturase to cell differentiation, hormone synthesis and drug effects.
The details of how the invention can be carried out can be better understood by reference to the figures. […] Glucose activation via hexokinase/glucokinase and the formation of fructose-1,6-bis phosphate maintain the ^13C labeled carbons in the 1st and 2nd positions. ^13C-labeled carbon positions derived from [1,2-^13C2]glucose are shown by the “13” superscript, while ^12C native-labeled carbon positions are shown by the “12” superscript. Participating enzymes are italicized in all of the figures. Thus, a single version of the invention can be carried out by creating two separate cell culture systems. The first system is a control system which includes the ^13C labeled glucose which may be [1,2-^13C2] glucose. […]

| Molecule | glucose activation and oxidative and non-oxidative ribose synthesis from glucose (metabolic profile of anticancer compounds, associated with effective tumor growth control) | cell proliferation rates | nucleic acid ribose synthesis through the non-oxidative steps of the pentose cycle |
| --- | --- | --- | --- |
| Cc1ccc(NC(=O)c2ccc(CN3CCN(C)CC3)cc2)cc1Nc1nccc(-c2cccnc2)n1 [Gleevec] | inhibited | – | – |
| CCOP(=S)(NC(C)C)Oc1ccccc1C(=O)OC(C)C (centres unmarked) [isofenphos] | – | increased | intense |
| transforming growth factor beta [TGF-beta] | – | increased | intense |
